# Data: ChEMBL document CHEMBL1909046, “DrugMatrix in vitro pharmacology data”
# What was measured:
# [1] = target: Aldo-keto reductase family 1 member B1 (Rattus norvegicus, UniProt P07943); assay: biochemical; assay type: tissue-based, Lens of camera-type eye;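 also: inhibition of aldose reductase enzyme activity, measured with DL-glyceraldehyde as the substrate; in other assays of this panel Not Active means under 50% inhibition at 10 µM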
# [2] = target: Mitogen-activated protein kinase 1 (Homo sapiens, UniProt P28482); assay: DRUGMATRIX: Protein Serine/Threonine Kinase, ERK2 enzyme inhibition (substrate: Myelin Basic Protein); design: species or system Escherichia coli; conditions: Not Active = under 50% inhibition at 10 µM
# Sequence of Mitogen-activated protein kinase 1 (P28482 whole entry): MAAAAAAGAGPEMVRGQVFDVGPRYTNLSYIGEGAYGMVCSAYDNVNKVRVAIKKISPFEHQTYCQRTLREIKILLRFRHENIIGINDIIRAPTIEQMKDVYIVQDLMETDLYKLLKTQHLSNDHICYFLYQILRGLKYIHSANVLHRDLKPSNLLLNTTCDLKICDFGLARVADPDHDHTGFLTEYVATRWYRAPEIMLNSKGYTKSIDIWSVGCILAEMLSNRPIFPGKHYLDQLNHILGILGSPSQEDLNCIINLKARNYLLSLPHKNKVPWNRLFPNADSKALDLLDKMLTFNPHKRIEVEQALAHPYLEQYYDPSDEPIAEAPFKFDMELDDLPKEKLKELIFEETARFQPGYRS
# [3] = target: Glycine receptor (Rattus norvegicus, UniProt P22771+P24524+P07727+P20781); assay type: cell membranes, Wistar, Spinal cord, Membrane; also: in other assays of this panel Not Active means under 50% inhibition at 10 µM
# [4] = target: Vasopressin V1a receptor (Homo sapiens, UniProt P37288); assay type: cell membranes, Membrane; conditions: hek293; also: in other assays of this panel Not Active means under 50% inhibition at 10 µM
# Sequence of Vasopressin V1a receptor (P37288 whole entry): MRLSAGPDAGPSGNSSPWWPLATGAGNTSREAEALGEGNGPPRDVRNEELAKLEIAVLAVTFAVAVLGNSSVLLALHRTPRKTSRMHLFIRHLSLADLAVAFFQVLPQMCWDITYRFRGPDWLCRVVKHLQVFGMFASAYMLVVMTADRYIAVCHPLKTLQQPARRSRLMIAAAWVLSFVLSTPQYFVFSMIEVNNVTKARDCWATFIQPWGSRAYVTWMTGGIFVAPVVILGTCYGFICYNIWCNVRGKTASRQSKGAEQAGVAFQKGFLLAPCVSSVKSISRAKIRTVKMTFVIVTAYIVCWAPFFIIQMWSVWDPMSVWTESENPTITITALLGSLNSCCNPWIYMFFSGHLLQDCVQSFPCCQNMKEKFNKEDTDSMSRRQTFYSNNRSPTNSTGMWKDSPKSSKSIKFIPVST
# [5] = target: Mu-type opioid receptor (Homo sapiens, UniProt P35372); assay: DRUGMATRIX: Opiate mu (OP3, MOP) radioligand binding (ligand: [3H] Diprenorphine); assay type: cell membranes, CHO-K1, Membrane; conditions: cho-k1; Not Active = under 50% inhibition at 10 µM
# Sequence of Mu-type opioid receptor (P35372 whole entry): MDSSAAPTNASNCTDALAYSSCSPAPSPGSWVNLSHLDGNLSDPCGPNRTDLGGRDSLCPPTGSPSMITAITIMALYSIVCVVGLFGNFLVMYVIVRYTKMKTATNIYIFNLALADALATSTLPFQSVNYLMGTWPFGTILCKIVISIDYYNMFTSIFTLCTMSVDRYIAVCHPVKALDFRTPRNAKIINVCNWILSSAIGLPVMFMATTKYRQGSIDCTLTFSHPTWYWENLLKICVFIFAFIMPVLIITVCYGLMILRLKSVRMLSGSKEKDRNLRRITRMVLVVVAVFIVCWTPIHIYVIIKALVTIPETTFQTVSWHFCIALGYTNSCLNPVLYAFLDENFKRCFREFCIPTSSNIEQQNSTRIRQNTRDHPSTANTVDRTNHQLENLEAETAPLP
# [6] = target: T1, Type-2 angiotensin II receptor (Homo sapiens, UniProt P50052); assay type: cell-based; conditions: cho-k1; also: in other assays of this panel Not Active means under 50% inhibition at 10 µM
# T1 sequence (P50052 whole entry): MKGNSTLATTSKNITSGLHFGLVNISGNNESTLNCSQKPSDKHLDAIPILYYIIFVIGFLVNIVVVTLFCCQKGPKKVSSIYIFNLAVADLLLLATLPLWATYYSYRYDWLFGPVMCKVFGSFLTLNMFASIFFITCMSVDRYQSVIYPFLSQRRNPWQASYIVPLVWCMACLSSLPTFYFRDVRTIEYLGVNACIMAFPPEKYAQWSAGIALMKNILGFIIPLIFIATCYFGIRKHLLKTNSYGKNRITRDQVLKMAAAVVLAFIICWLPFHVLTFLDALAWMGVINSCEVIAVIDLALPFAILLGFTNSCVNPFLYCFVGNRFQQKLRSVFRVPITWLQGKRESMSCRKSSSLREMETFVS
# [7] = DRUGMATRIX: Sigma2 radioligand binding (ligand: [3H] Ifenprodil); assay type: cell membranes, Rattus norvegicus, Wistar, Brain, Membrane; conditions: Not Active = under 50% inhibition at 10 µM
Molecule,IC50 [1],IC50 [2],IC50 [3],IC50 [4],IC50 [5],IC50 [6],IC50 [7],Ki [7],Ki [1],Ki [2],Ki [3],Ki [4],Ki [6],IC50 ([7]; read-out: IC50) [nM],Ki ([7]; read-out: Ki) [nM],IC50 ([2]; read-out: IC50) [nM]
COc1ccc(Cl)cc1C(=O)NCCc1ccc(S(=O)(=O)NC(=O)NC2CCCCC2)cc1 [GLYBURIDE],Not Active,Not Active,Not Active,Not Active,Not Active,Not Active,Not Active,Not Active,,,,,,,,
CHROMIC CHLORIDE,Not Active,Not Active,Not Active,Not Active,,Not Active,Not Active,Not Active,Not Active,Not Active,Not Active,Not Active,Not Active,,,
CCN1C[C@]2(COC)[C@H](O)C[C@H](OC)[C@@]34[C@@H]5C[C@@]6(O)[C@H](OC(=O)c7ccccc7)[C@@H]5[C@@](OC(C)=O)([C@@H]([C@H](OC)[C@H]23)[C@@H]14)[C@@H](O)[C@@H]6OC [ACONITINE],Not Active,Not Active,Not Active,Not Active,,Not Active,Not Active,Not Active,,,,,,,,
O=C(O)CCc1nc(-c2ccccc2)c(-c2ccccc2)o1 [OXAPROZIN],Not Active,Not Active,Not Active,Not Active,Not Active,Not Active,Not Active,Not Active,,,,,,,,
Cc1ccnc2c1NC(=O)c1cccnc1N2C1CC1 [NEVIRAPINE],Not Active,Not Active,Not Active,Not Active,Not Active,Not Active,Not Active,Not Active,,,,,,,,
Clc1cc(Cl)c(OCC#CI)cc1Cl [HALOPROGIN],Not Active,Not Active,Not Active,Not Active,Not Active,Not Active,Not Active,Not Active,,,,,,,,
COc1ccccc1OCCNCC(O)COc1cccc2[nH]c3ccccc3c12 (stereo not drawn) [CARVEDILOL],Not Active,Not Active,Not Active,Not Active,Not Active,Not Active,Not Active,Not Active,,,,,,,,
CCN1CCN(c2cc3c(cc2F)c(=O)c(C(=O)O)cn3C2CC2)CC1 [ENROFLOXACIN],Not Active,Not Active,Not Active,Not Active,Not Active,Not Active,Not Active,Not Active,,,,,,,,
POVIDONE,Not Active,Not Active,Not Active,Not Active,,Not Active,Not Active,Not Active,Not Active,Not Active,Not Active,Not Active,Not Active,,,
"C=C(Cl)Cl [1,1-DICHLOROETHENE]",Not Active,Not Active,Not Active,Not Active,,Not Active,Not Active,Not Active,,,,,,,,
CC(=O)[C@]1(O)Cc2c(O)c3c(c(O)c2[C@@H](O[C@H]2C[C@H](N)[C@H](O)[C@H](C)O2)C1)C(=O)c1ccccc1C3=O [IDARUBICIN],Not Active,Not Active,Not Active,Not Active,Not Active,Not Active,Not Active,Not Active,,,,,,,,
NC(=O)CN1CCCC1=O,Not Active,Not Active,Not Active,Not Active,Not Active,Not Active,Not Active,Not Active,,,,,,,,
CO[C@H]1O[C@@H]2O[C@@]3(C)CC[C@H]4[C@H](C)CC[C@@H]([C@H]1C)[C@@]24OO3,Not Active,Not Active,Not Active,Not Active,Not Active,Not Active,Not Active,Not Active,,,,,,,,
CC12CCC(CC1)C(C)(C)O2 [EUCALYPTOL],Not Active,Not Active,Not Active,Not Active,Not Active,Not Active,Not Active,Not Active,,,,,,,,
C[N+](C)(C)CCOC(N)=O.[Cl-] [CARBACHOL],Not Active,Not Active,Not Active,Not Active,Not Active,Not Active,Not Active,Not Active,,,,,,,,
NS(=O)(=O)c1cc(C(=O)O)c(NCc2ccco2)cc1Cl [FUROSEMIDE],Not Active,Not Active,Not Active,Not Active,Not Active,Not Active,Not Active,Not Active,,,,,,,,

Molecule,IC50 [1],IC50 [2],IC50 [3],IC50 [4],IC50 [5],IC50 [6],IC50 [7],Ki [7],Ki [1],Ki [2],Ki [3],Ki [4],Ki [6],IC50 ([7]; read-out: IC50) [nM],Ki ([7]; read-out: Ki) [nM],IC50 ([2]; read-out: IC50) [nM]
CC(C)NCC(O)COc1ccc(CC(N)=O)cc1 (stereo not drawn) [ATENOLOL],Not Active,Not Active,Not Active,Not Active,Not Active,Not Active,Not Active,Not Active,,,,,,,,
Oc1ncnc2[nH]ncc12 [ALLOPURINOL],Not Active,Not Active,Not Active,Not Active,Not Active,Not Active,Not Active,Not Active,,,,,,,,
NCC(CC(=O)O)c1ccc(Cl)cc1 (stereo not drawn) [BACLOFEN],Not Active,Not Active,Not Active,Not Active,Not Active,Not Active,Not Active,Not Active,,,,,,,,
O=C1CN(/N=C/c2ccc([N+](=O)[O-])o2)C(=O)N1 [NITROFURANTOIN],Not Active,Not Active,Not Active,Not Active,Not Active,Not Active,Not Active,Not Active,,,,,,,,
CC12CCC(CC1=O)C2(C)C (stereo not drawn) [CAMPHOR],Not Active,Not Active,Not Active,Not Active,Not Active,Not Active,Not Active,Not Active,,,,,,,,
CN(Cc1cc(Br)cc(Br)c1N)C1CCCCC1 [BROMHEXINE],Not Active,,Not Active,Not Active,Not Active,Not Active,,,,,,,,59,36,
COPPER(II) OXIDE,Not Active,Not Active,Not Active,Not Active,,Not Active,Not Active,Not Active,Not Active,Not Active,Not Active,Not Active,Not Active,,,
Nc1ccc(Cc2ccc(N)cc2)cc1,Not Active,Not Active,Not Active,Not Active,,Not Active,Not Active,Not Active,,,,,,,,
O=C(O)CNCP(=O)(O)O [GLYPHOSATE],Not Active,Not Active,Not Active,Not Active,,Not Active,Not Active,Not Active,,,,,,,,
CARBOXYMETHYLCELLULOSE,Not Active,,Not Active,Not Active,,Not Active,Not Active,Not Active,Not Active,,Not Active,Not Active,Not Active,,,216
C[C@@H]1[C@H](O)[C@@H](C)/C=C/C=C/C=C/C=C/C=C/C=C/C=C/[C@H](O[C@@H]2O[C@H](C)[C@@H](O)[C@H](N)[C@@H]2O)C[C@@H]2O[C@](O)(C[C@@H](O)C[C@@H](O)[C@H](O)CC[C@@H](O)C[C@@H](O)CC(=O)O[C@H]1C)C[C@H](O)[C@H]2C(=O)O [AMPHOTERICIN B],Not Active,,Not Active,Not Active,Not Active,Not Active,Not Active,Not Active,,,,,,,,
C=CCN1CC[C@]23c4c5ccc(O)c4O[C@H]2/C(=N/N=C2\CC[C@@]4(O)[C@H]6Cc7ccc(O)c8c7[C@@]4(CCN6CC=C)[C@H]2O8)CC[C@@]3(O)[C@H]1C5 [NALOXONAZINE],Not Active,Not Active,Not Active,Not Active,,Not Active,Not Active,Not Active,,,,,,,,
C=CCO [ALLYL ALCOHOL],Not Active,Not Active,Not Active,Not Active,,Not Active,Not Active,Not Active,,,,,,,,
COc1cc([C@@H]2c3cc4c(cc3[C@H](O)[C@H]3COC(=O)[C@H]23)OCO4)cc(OC)c1OC [PODOFILOX],Not Active,Not Active,Not Active,Not Active,,Not Active,Not Active,Not Active,,,,,,,,
ClC1=C(Cl)[C@]2(Cl)[C@@H]3[C@@H]4C[C@@H]([C@H]5O[C@@H]45)[C@@H]3[C@@]1(Cl)C2(Cl)Cl [DIELDRIN],Not Active,Not Active,Not Active,Not Active,,Not Active,Not Active,Not Active,,,,,,,,
